Where a SMILES comes first, the peptide text is derived from it.
Experiments:
Androgen receptor [1] = target: T1, Androgen receptor (Rattus norvegicus, UniProt P15207); format: functional
T1 sequence (P15207 whole entry): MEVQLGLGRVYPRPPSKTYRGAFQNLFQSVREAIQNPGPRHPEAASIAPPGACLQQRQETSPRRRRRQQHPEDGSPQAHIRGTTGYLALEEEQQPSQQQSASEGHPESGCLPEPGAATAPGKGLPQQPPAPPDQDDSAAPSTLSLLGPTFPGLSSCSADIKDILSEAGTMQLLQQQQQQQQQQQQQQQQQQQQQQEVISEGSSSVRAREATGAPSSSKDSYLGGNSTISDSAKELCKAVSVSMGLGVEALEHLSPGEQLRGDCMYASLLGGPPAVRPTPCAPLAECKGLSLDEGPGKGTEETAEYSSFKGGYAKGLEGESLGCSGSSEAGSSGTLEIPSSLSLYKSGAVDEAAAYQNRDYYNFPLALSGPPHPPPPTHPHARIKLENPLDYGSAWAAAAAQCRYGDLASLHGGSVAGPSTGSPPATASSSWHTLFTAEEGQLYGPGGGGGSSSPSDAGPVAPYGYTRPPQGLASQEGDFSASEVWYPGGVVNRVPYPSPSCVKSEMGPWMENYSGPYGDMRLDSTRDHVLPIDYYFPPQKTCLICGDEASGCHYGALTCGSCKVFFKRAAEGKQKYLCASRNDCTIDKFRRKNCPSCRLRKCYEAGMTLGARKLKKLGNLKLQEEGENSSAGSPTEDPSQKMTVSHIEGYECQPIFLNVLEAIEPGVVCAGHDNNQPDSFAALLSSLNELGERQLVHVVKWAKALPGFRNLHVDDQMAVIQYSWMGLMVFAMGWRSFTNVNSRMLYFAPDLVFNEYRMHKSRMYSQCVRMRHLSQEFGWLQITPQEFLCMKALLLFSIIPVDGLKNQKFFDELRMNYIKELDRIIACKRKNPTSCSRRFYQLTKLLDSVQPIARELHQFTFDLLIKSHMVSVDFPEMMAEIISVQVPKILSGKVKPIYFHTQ

Androgen receptor [2] = target: T1, Androgen receptor; format: functional; remark: listed apart in the source
[3] = target: Gamma-aminobutyric acid receptor subunit alpha-1/alpha-2/beta-2/gamma-2 (Homo sapiens, UniProt P14867+P18507+P47869+P47870); format: functional, cell-based
Gamma-aminobutyric acid receptor subunit alpha-1/alpha-2/beta-2/gamma-2, sequence (P14867 whole entry): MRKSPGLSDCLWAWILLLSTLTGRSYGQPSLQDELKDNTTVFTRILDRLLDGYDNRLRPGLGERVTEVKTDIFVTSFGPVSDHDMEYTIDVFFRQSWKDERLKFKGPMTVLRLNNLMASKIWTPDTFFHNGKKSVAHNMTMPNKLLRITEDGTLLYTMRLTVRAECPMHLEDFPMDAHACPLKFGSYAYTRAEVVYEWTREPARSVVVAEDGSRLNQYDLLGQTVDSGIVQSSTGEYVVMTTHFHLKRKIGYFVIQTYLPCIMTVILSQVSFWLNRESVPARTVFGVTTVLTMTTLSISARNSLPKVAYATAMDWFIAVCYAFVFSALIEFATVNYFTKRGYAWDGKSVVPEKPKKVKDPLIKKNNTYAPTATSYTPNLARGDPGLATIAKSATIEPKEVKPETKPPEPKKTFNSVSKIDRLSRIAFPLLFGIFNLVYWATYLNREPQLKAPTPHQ
Gamma-aminobutyric acid receptor subunit alpha-1/alpha-2/beta-2/gamma-2, sequence (P47870 whole entry): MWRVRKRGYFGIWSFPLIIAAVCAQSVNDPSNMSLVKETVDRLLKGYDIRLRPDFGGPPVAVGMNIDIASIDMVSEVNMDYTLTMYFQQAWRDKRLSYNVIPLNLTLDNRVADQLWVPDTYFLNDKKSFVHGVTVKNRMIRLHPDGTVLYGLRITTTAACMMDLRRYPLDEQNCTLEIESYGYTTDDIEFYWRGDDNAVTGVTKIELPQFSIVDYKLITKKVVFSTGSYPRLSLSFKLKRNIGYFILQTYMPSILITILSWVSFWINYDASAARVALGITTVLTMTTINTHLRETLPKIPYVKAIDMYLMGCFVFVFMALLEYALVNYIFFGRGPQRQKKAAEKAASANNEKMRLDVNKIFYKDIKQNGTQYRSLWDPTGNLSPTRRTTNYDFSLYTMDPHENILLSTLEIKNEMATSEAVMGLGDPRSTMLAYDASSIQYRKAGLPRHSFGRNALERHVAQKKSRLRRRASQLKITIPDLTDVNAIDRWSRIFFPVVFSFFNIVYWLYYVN
Gamma-aminobutyric acid receptor subunit alpha-1/alpha-2/beta-2/gamma-2, sequence (P18507 whole entry): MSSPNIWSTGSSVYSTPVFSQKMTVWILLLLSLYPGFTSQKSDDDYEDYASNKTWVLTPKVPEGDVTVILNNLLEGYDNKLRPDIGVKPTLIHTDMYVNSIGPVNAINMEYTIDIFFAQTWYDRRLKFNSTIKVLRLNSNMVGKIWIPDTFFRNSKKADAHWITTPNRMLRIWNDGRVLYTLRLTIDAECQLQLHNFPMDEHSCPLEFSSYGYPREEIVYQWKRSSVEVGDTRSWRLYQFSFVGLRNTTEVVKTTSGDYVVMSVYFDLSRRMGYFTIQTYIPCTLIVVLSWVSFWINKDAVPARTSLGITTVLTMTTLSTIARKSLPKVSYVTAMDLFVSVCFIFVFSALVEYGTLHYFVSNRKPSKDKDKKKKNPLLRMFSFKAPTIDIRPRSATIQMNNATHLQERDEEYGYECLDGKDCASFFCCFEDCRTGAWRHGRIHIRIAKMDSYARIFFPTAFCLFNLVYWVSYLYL
Gamma-aminobutyric acid receptor subunit alpha-1/alpha-2/beta-2/gamma-2, sequence (P47869 whole entry): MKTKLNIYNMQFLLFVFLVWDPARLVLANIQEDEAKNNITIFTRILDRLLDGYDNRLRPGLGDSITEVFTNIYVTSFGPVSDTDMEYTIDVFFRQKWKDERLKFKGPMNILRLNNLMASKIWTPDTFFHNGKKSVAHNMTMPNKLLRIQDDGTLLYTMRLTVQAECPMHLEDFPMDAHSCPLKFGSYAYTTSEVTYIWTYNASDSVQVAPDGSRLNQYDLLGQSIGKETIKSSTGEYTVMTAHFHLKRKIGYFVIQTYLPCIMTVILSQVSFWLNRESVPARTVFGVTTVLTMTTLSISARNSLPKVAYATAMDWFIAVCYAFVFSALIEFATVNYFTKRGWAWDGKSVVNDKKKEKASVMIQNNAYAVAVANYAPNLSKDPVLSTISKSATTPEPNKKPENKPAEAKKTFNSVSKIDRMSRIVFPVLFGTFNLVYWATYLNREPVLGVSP

[4] = target: Beta-3 adrenergic receptor (Homo sapiens, UniProt P13945)
Beta-3 adrenergic receptor, sequence (P13945 whole entry): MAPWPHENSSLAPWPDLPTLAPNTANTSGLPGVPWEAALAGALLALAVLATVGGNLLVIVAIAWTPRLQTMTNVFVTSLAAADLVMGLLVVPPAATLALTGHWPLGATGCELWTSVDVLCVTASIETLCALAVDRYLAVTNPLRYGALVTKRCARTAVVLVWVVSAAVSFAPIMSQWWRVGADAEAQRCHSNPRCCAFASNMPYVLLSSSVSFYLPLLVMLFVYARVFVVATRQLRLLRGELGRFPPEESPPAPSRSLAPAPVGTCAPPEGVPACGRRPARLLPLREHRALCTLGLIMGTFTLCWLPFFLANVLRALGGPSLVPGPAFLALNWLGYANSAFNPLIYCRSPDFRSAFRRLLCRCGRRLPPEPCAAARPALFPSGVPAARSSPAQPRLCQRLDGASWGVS

[5] = target: Neurotensin receptor type 1 (Homo sapiens, UniProt P30989)
Neurotensin receptor type 1, sequence (P30989 whole entry): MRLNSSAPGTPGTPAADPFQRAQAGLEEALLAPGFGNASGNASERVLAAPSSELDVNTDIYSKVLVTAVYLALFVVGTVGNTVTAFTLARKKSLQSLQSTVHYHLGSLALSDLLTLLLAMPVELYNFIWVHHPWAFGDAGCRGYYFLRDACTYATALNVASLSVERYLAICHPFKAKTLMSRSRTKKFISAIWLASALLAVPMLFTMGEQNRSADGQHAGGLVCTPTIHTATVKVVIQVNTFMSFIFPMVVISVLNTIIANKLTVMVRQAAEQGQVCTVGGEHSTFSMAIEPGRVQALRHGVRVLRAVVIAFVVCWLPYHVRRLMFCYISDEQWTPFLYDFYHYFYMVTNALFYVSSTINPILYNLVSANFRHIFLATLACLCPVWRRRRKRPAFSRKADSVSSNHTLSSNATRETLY

[6] = target: T2, Corticotropin-releasing factor receptor 1 (Homo sapiens, UniProt P34998)
T2 sequence (P34998 whole entry): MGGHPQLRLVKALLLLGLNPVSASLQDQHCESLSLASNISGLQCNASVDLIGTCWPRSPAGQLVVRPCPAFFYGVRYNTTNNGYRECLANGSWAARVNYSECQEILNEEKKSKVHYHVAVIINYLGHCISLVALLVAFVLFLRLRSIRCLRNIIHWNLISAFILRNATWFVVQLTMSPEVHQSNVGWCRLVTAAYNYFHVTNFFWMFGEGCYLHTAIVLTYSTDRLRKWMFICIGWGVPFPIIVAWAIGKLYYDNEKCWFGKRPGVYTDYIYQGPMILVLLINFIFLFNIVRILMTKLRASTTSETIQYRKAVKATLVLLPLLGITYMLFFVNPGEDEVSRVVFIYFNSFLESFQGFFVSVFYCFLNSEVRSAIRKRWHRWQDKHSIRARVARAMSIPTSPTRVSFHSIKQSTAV

[7] = target: T3, Alpha-2A adrenergic receptor (Homo sapiens, UniProt P08913)
T3 sequence (P08913 whole entry): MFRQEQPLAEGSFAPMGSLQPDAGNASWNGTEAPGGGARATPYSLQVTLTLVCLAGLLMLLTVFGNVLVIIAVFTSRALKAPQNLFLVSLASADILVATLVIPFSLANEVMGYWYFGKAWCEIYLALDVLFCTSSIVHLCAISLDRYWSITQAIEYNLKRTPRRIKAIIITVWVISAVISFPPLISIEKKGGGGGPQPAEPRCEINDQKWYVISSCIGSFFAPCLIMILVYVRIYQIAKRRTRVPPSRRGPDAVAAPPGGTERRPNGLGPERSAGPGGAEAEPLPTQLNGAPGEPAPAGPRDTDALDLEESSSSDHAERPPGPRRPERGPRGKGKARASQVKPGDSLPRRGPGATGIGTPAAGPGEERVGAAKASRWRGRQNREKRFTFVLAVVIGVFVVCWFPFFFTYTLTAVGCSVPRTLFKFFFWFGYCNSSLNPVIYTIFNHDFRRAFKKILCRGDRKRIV

[8] = target: T4, Gastric inhibitory polypeptide receptor (Homo sapiens, UniProt P48546)
T4 sequence (P48546 whole entry): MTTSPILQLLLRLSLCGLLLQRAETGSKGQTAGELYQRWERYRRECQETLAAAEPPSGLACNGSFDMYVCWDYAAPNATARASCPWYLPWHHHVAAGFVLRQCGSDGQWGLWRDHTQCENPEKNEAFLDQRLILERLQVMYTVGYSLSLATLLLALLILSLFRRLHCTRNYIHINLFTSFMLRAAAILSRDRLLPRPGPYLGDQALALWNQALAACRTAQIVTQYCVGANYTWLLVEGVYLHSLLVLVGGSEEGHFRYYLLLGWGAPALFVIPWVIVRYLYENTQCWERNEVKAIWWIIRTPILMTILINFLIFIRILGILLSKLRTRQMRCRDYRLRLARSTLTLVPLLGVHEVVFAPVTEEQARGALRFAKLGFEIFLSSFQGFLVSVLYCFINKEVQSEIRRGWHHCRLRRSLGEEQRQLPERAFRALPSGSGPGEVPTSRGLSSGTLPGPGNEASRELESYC

Androgen receptor [9] = target: T1, Androgen receptor
[10] = target: Voltage-dependent N-type calcium channel subunit alpha-1B (Rattus norvegicus, UniProt Q02294); format: functional
[11] = target: 5-hydroxytryptamine receptor 2B (Homo sapiens, UniProt P41595)
5-hydroxytryptamine receptor 2B, sequence (P41595 whole entry): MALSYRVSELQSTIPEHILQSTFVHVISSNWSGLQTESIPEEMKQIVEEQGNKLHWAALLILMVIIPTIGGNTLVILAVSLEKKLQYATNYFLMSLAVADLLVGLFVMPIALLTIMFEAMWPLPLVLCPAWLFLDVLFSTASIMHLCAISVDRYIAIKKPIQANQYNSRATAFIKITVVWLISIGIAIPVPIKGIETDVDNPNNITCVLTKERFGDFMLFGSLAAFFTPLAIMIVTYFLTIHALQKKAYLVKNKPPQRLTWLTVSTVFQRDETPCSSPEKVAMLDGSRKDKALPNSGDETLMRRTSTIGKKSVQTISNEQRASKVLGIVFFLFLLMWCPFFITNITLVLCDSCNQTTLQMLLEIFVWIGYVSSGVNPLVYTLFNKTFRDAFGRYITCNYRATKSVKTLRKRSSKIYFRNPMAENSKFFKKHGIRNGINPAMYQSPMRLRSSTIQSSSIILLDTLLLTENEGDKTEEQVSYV

Glucagon receptor = Glucagon receptor (Homo sapiens, UniProt P47871)
Glucagon receptor, sequence (P47871 whole entry): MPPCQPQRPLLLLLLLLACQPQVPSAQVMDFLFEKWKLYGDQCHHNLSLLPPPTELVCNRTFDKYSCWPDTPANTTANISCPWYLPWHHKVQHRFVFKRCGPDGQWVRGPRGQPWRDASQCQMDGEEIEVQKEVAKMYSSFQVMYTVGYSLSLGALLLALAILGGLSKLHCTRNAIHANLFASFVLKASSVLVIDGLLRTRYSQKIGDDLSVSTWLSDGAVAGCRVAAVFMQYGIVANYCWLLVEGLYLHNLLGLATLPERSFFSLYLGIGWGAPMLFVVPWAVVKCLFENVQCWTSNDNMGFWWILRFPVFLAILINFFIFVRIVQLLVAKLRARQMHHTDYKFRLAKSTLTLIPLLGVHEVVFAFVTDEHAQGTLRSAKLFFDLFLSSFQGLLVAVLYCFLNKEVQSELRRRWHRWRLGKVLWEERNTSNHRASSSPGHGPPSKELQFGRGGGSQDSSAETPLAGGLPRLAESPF
Note: assay procedure not described here.

SMILES | AC50 (Androgen receptor [1]) [µM] | AC50 (Androgen receptor [2]) [µM] | AC50 [3] [µM] | also measured
CN1CCCN=C1/C=C/c1cccc(O)c1 [OXANTEL] | 26 |  |  | 
CC(=O)OCC(=O)[C@@]1(O)CC[C@H]2[C@@H]3CCC4=CC(=O)CC[C@]4(C)[C@@]3(F)[C@@H](O)C[C@@]21C [FLUDROCORTISONE ACETATE] | > 30 | > 30 |  | 
O=C(O)c1nn(Cc2ccc(Cl)cc2Cl)c2ccccc12 [LONIDAMINE] | > 30 | > 30 | > 30 | 
O=C(O)c1ccc2nc(-c3cc(Cl)cc(Cl)c3)oc2c1 | > 30 | > 30 |  | 
CCCCCCCC(=O)CC[C@@H]1[C@@H](C/C=C\CCCC(=O)O)[C@@H](O)C[C@H]1O [UNOPROSTONE] | > 30 | > 30 | > 30 | 
Cc1ccc(-c2ncc(Cl)cc2-c2ccc(S(C)(=O)=O)cc2)cn1 [ETORICOXIB] |  |  |  | AC50 [4]: > 30 µM; AC50 [5]: > 30 µM; AC50 [6]: > 30 µM; AC50 [7]: > 10 µM; AC50 [8]: > 30 µM; AC50 (Androgen receptor [9]): > 30 µM; AC50 [10]: > 10 µM; AC50 [11]: > 10 µM; AC50 (Glucagon receptor): > 30 µM
CC(=O)Oc1cccc2c1C(=O)c1c(OC(C)=O)cc(C(=O)O)cc1C2=O [DIACEREIN] | > 30 | > 10 |  | AC50 [11]: > 30 µM
CN(C)CCOCC(=O)NC12CC3CC(CC(C3)C1)C2 [TROMANTADINE] | > 30 | > 30 |  | 
Cc1ccc(S(=O)(=O)NC(=O)N[C@H]2[C@H]3CC[C@@](C)([C@H]2O)C3(C)C)cc1 [GLIBORNURIDE] | > 30 | > 30 |  | 
CCCO[C@H]1[C@@H]([C@@H](COCc2ccc(Cl)cc2)OCc2ccc(Cl)cc2)OC(OCC)[C@@H]1O (stereo not given in full) [CLOBENOSIDE] | > 30 | > 30 |  | 
COc1ccc(-n2nc(C(N)=O)c3c2C(=O)N(c2ccc(N4CCCCC4=O)cc2)CC3)cc1 [APIXABAN] | > 30 | > 30 | > 30 | 
C[C@H](N)C(=O)N[C@@H](CCC(N)=O)C(=O)O [ALANYL GLUTAMINE] (H-Ala-Gln-OH) | > 30 | > 30 |  | 
CCN(CC)C(C)C(=O)c1ccccc1 (stereo not given) [DIETHYLPROPION] |  |  |  | AC50 [4]: > 30 µM; AC50 [5]: > 30 µM; AC50 [6]: > 30 µM; AC50 [7]: 4.46 µM; AC50 [8]: > 30 µM; AC50 (Androgen receptor [9]): > 30 µM; AC50 [10]: > 10 µM; AC50 [11]: > 10 µM; AC50 (Glucagon receptor): > 30 µM
CCCCC[C@H](O)CC[C@@H]1[C@H]2Cc3cccc(OCC(=O)O)c3C[C@H]2C[C@H]1O [TREPROSTINIL] | > 30 | > 30 |  | 
COC(=O)c1ccc2c(c1)NC(=O)/C2=C(\Nc1ccc(N(C)C(=O)CN2CCN(C)CC2)cc1)c1ccccc1 [NINTEDANIB] | > 30 |  | > 30 | 
NS(=O)(=O)c1ccc(N2CCCCS2(=O)=O)cc1 | > 30 | > 30 | > 30 | 
CCC(=O)O[C@H](CC(=O)O)C[N+](C)(C)C [LEVOCARNITINE PROPIONATE] | > 30 | > 30 | > 30 | 
CCCCOC(=O)C(=O)Nc1cccc(-c2nnn[nH]2)c1 [TAZANOLAST] | > 30 | > 30 |  | 

Reference: ChEMBL document CHEMBL5291721, “A preclinical secondary pharmacology resource illuminates target-adverse drug reaction associations of marketed drugs” (Nat Commun, 2023)
